Two substances from patent publication US8628762B2, “T-helper cell type 17 lineage-specific adjuvants, compositions and methods” (Icahn School of Medicine at Mount Sinai, priority 2008, dated 2014) can be followed below.

Assay [1] relates to Bone marrow DC. Kind of assay: TGF-β bioassay of DC conditioned medium (MFB-F11 SBE-SEAP reporter cells). The class given is cell-based, mice. How it is done: Analysis of bioactive TGF-β was performed as previously described in Tesseur, I. et al. (2006) BMC Cell Biol 7: 15. MFB-F11 mouse fibroblast cells stably transfected with a reporter plasmid consisting of TGF-β-responsive Smad-binding elements coupled to a secreted alkaline phosphatase reporter gene (SBE-SEAP) were seeded at 3×10^4 cells/well in 96-well flat bottom tissue culture plates and cultured overnight in DMEM supplemented with 10% FBS and penicillin/streptomycin (DMEM/P/S). Cells were washed twice with PBS and incubated in 50 μL serum-free DMEM for 2 hours. Conditioned medium from DC was diluted 1:5 in serum-free DMEM/P/S and 5 μL was added to the MFB-F11 cells. For detection of total TGF-β, diluted conditioned medium was activated by adding 1.5 μL 6M HCl to 150 μL of sample and incubating 10 minutes at room temperature. Neutralization was performed by adding 1.5 μL 6M NaOH. […] SEAP activity was measured using Great EscAPe™ SEAP Reporter System 3 (Clontech, Mountain View, Calif.) according to the manufacturer's protocol with 96-well white/flat bottom plates. Luciferase activity was measured with a FLUOStar Optima reader (BMG Labtech, Durham, N.C.). For each sample, the concentration of biologically active TGF-β was calculated as follows: (luciferase activity of bio-active TGF-β/luciferase activity for total TGF-β)×100. […]

The subject of assay [2] is Naïve CD4 T-cells. Nature of the assay: In vitro T-cell differentiation in DC conditioned medium, IL-17/IL-10 in supernatants by ELISA. The format is cell-based, C57BL/6J mice. The note with it: three days in CM, with IFN-γ neutralizing antibody. How it is done:
Bone marrow (BM)-derived GM-CSF DC cultures were grown in RPMI supplemented with GM-CSF and 5% foetal bovine serum (FBS), plus 100 μg/mL penicillin, 100 μg/mL streptomycin, 2 mM L-glutamine, 10 mM HEPES, 1 nM sodium pyruvate, 1×MEM nonessential amino acids, and 2.5 μM β-mercaptoethanol (all from Sigma-Aldrich, St. Louis, Mo.), as previously dcseribed^1. Semi-adherent cells were harvested on ice on day 5 and re-plated immediately in fresh GM-CSF medium at 1×10^6 cells/well in 24-well tissue culture-treated plates. Soluble or phagocytic stimuli were added right away to the plates in the same medium and the cells were centrifuged for 2 min at 2000 rpm. Supernatants (conditioned medium, CM) were collected after 18 hours. LPS (from E. coli, serotype 055:B5, L-2880) was purchased from Sigma-Aldrich. BMDC were treated with various doses of soluble LPS or 2:1 A20 LPS blasts:DC to titrate the LPS such that levels of IL-6 produced by DC in response to these stimuli was similar. Soluble LPS was used at a final concentration of 1 ng/mL. The A20 B-cell line was obtained from the ATCC (TIB-208). A20 LPS blasts were prepared by culturing A20 cells at 1×10^6 cells/mL, 3 mL/well in 6-well tissue culture plates for four days in RPMI medium supplemented with 10% FBS, with 100 μg/mL penicillin, 100 μg/mL streptomycin, 2 mM L-glutamine, 10 mM HEPES, 1 nM sodium pyruvate, plus 25 μg/mL LPS, as previously described in Blander, J. M. and Medzhitov, R. (2004) Science 304(5673):1014. […] Cells were centrifuged, counted, and apoptosis was induced by UV irradiation at 350 mJ. […]
Naïve CD4 T cells were isolated first by sorting with MACS® CD4^+ beads (Miltenyi Biotech, Auburn, Calif.) according to manufacturer's instructions and then by fluorescence activated cell sorting (FACS) using a MoFlo™, Vantage, or Influx™ cell sorter for CD25^−CD44^lowCD62L^high cells using allophycocyanin (APC)-conjugated anti-CD25 monoclonal antibody (mAb) (clone PC61.5), FITC-conjugated CD62L mAb (clone MEL-14), and PE-Cy5-conjugated CD44 mAb (clone IM7) (all from eBioscience™, San Diego, Calif.). […]
Background: ELISA stands for enzyme-linked immunosorbent assay.

Assay [3] deals with IL-17+ CD4 T-cells in lamina propria. Nature of the assay: DSS-induced damage of the intestinal epithelium, IL-17+ CD4 T-cells in lamina propria lymphocytes. The class given is in vivo, C57BL/6 mice. The note with it: DSS in water for seven days, sacrificed on day 9, small intestines and colons. How it is done: The small intestines and colons of C57BL/6J or C3H/HeOuJ mice were harvested at the indicated times. […] To prepare IEL/LPL, small intestines and colons were flushed with HBSS medium without calcium or magnesium (Gibco). Intestines were cut longitudinally and washed twice briefly in HBSS, 2% FBS in 6-well plates and then placed in 15 mL ice-cold HBSS, 2% FBS in 50-mL conical tubes and vortexed at maximum setting for 15-20 seconds. Tissue was removed using long forceps into a new tube with 15 mL ice-cold HBSS, 2% FBS and vortexed again twice, for a total of three washes. The tissues were then placed in 50-mL conical tubes containing 25 mL, HBSS, 5% FBS, and 1 mM DTT (Sigma-Aldrich). Tubes were incubated on a rocker at 37° C. for 20 minutes followed by vortexing extensively at maximum setting. For IEL, fractions were collected after two rounds of 20 minutes in HBSS/FBS/DTT. Tissues were then placed in fresh tubes containing 25 mL of PBS with 1.3 mM EDTA, incubated on a rocker for 60 minutes at 37° C. and vortexed. […]
WT and mutant C. rodentium were prepared by incubation with shaking at 37° C. for 8 hours in LB broth medium. After 8 hours, the bacterial density was assessed at an optical density of 600 nm and confirmed by plating of serial dilutions. […]

Consider lipopolysaccharide [free LPS], for which the “production of biologically active TGF-β by DC” value in assay [1] was “did not”. Besides, the “IL-17 secreting CD4 T-cells” value in assay [2] is given as “some induction of IL-17 secreting (IL-17^+) CD4 T-cells”.
With “dextran sulfate sodium [dextran sulfate sodium (DSS)]”, the “IL-17+ CD4 T-cells” value in assay [3] is “did not increase IL-17^+ CD4 T-cells over uninfected controls”.
